For orientation: Km means the concentration of substrate that gives half-maximal velocity.

Experimental findings from paper PMC8910387, “Systematic Comparison of Beetle Luciferase-Luciferin Pairs as Sources of Near-Infrared Light for In Vitro and In Vivo Applications” (International Journal of Molecular Sciences, 2022) are described below.

What all share (assay): bioluminescence peak-height (V0) kinetics
In assay [1] the target is T1, Luc2 (Photinus pyralis, UniProt P08659).
T1 construct: mammalian codon optimized P. pyralis Luc; pGEX-6P-2, E. coli BL21(DE3)pLysS, GST removed, N-terminal GlyProLeuGlySer kept; Mut51 from pET28a (His-tag)
T1 sequence (P08659 whole entry): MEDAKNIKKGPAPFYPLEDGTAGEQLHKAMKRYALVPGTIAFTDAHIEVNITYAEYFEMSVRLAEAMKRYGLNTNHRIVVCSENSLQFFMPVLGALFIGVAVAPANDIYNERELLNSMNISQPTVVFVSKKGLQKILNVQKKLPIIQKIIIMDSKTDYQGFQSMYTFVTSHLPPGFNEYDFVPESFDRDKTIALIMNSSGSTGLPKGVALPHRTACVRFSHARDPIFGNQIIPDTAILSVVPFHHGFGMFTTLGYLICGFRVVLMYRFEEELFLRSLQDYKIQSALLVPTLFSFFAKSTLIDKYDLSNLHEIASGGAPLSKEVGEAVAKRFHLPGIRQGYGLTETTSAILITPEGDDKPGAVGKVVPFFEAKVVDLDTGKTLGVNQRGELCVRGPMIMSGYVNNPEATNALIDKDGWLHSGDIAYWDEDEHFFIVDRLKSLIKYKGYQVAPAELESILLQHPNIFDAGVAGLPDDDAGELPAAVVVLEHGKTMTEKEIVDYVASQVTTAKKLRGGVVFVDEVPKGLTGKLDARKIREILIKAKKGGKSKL
The format is biochemical. The conditions noted are these: Mg-ATP, O2; assay details in supplement; read-out: Km (μM) ^4. The text has this: (§1) bioluminescence peak-height (V0) kinetics on Luc2

The target in assay [2] is T2, Luc2 (Photinus pyralis, UniProt P08659, F243M/S347G, form not given).
T2 construct: mammalian codon optimized P. pyralis Luc; pGEX-6P-2, E. coli BL21(DE3)pLysS, GST removed, N-terminal GlyProLeuGlySer kept; Mut51 from pET28a (His-tag)
T2 sequence (P08659 whole entry F243M/S347G, form open): as the sequence (P08659 whole entry) above, with F243M, S347G counted along it
The assay is classed as biochemical. As to conditions: Mg-ATP, O2; assay details in supplement; Mut51, His-tagged; read-out: Km (μM) ^4.
Source text: as §1

The subject of assay [3] is T3, PLR3.
T3 construct: G246A/F250H in mammalian codon optimized PLR1; pGEX-6P-2, N-terminal GlyProLeuGlySer kept
The format is biochemical, Photinus pyralis / Luciola italica. As to conditions: Mg-ATP, O2; assay details in supplement; read-out: Km (μM) ^4. The text has this: bioluminescence peak-height (V0) kinetics on PLR3

The test system of assay [4] is T4, CBR (tested as CBR2, CBR2opt).
T4 construct: mouse codon optimized; pGEX-6P-2, E. coli BL21(DE3)pLysS, GST removed, N-terminal GlyProLeuGlySer kept
The format is biochemical. The conditions noted are these: Mg-ATP, O2; assay details in supplement; read-out: Km (μM) ^4. The source says: bioluminescence peak-height (V0) kinetics on CBR (tested as CBR2, CBR2opt)

Assay [5] concerns the target T5, Fluc_red (Photinus pyralis, UniProt P08659, S284T/E354R/D357Y, form not given).
T5 construct: pET16b, His-tag
The format is biochemical. The conditions noted are these: Mg-ATP, O2; assay details in supplement; read-out: Km (μM) ^4. The text has this:
bioluminescence peak-height (V0) kinetics on Fluc_red

T5 sequence (P08659 whole entry S284T/E354R/D357Y, form open): as the sequence (P08659 whole entry) above, with S284T, E354R, D357Y counted along it

Take `O=C(O)[C@H]1CSC(c2nc3c(Br)cc(O)cc3s2)=N1` [4′-BrLuc, (S)-2-(4-bromo-6-hydroxybenzo[d]thiazol-2-yl)-4,5-dihydrothiazole-4-carboxylic acid]: the values for the Km in assay [1] and in assay [2] were 44 ± 11 µM and 2.3 ± 0.2 µM, respectively. As for `O=C(O)[C@H]1CSC(c2nc3ccc4cc(O)cnc4c3s2)=N1` [OH-QLH2], the Michaelis-Menten constant (Km) in assay [1] came out at 1.8 ± 0.6 µM; in assay [3] it was 1.6 ± 0.1 µM.

For the compound `O=C(O)[C@H]1CSC(c2nc3ccc4cc(O)ccc4c3s2)=N1` [OH-NpLH2], the Km in assay [4] was 0.93 ± 0.13 µM. In the case of `O=C(O)[C@H]1CSC(/C=C/c2nc3ccc(O)cc3s2)=N1` [iLH2, (S,E)-2-(2-(6-hydroxybenzo[d]thiazol-2-yl)vinyl)-4,5-dihydrothiazole-4-carboxylic acid], the figures for the Michaelis constant (Km) in assay [4], in assay [5] and in assay [1] were 0.9 ± 0.08 µM, 0.17 ± 0.05 µM and 0.13 ± 0.05 µM, respectively. As to `Nc1cnc2c(ccc3nc(C4=N[C@@H](C(=O)O)CS4)sc32)c1` [NH2-QLH2], in assay [1], the Km came to 1.5 ± 0.2 µM. The same measure, in the same setting: the value for `O=C(O)[C@H]1CSC(c2nc3cc4c(cc3s2)NCC4)=N1` [CycLuc1, (S)-2-(6,7-dihydro-5H-thiazolo[4,5-f]indol-2-yl)-4,5-dihydrothiazole-4-carboxylic acid] was 0.61 ± 0.2 µM.

In the case of `Nc1ccc2nc(C3=N[C@@H](C(=O)O)CS3)sc2c1` [NH2-LH2, (S)-2-(6-aminobenzo[d]thiazol-2-yl)-4,5-dihydrothiazole-4-carboxylic acid], the Michaelis constant (Km) in assay [4] came to 9.5 ± 1.3 µM. On to `O=C(O)[C@H]1CSC(c2nc3ccc(O)cc3s2)=N1` [LH2, (S)-2-(6-hydroxybenzo[d]thiazol-2-yl)-4,5-dihydrothiazole-4-carboxylic acid], for which the Km in assay [4] is 250 ± 24 µM. Regarding `Nc1ccc2c(ccc3nc(C4=N[C@@H](C(=O)O)CS4)sc32)c1` [NH2-NpLH2], the Km in assay [4] worked out at 0.8 ± 0.1 µM; in assay [1], 3.3 ± 0.6 µM.
